# Values of other authors as cited in patent US9622967B2, “Highly stable compositions of orally active nucleotide analogues or orally active nucleotide analogue prodrugs” (Sigmapharm Laboratories, LLC, priority 2010, dated 2017).
# Counter-ions that a name gives are not always drawn.
smiles,measurement,setting,value
CC(C)OC(=O)OCOP(=O)(CO[C@H](C)Cn1cnc2c(N)ncnc21)OCOC(=O)OC(C)C [tenofovir disoproxil fumarate],"monoester mono(POC)-PMPA formed, weight percentage",3 days at 60° C. and 75% RH,3.1%
same,monoester mono(POC)PMPA already formed soon after production,soon after production,up to 1.0 % w/w
